Experimental findings from US7388017B2, “Inhibitors of serine proteases, particularly hepatitis C virus NS3 protease” (Vertex Pharmaceuticals Incorporated, priority 1996, dated 2008) are described below.

Starred links: 1 amine or outer side, 2 acyl side, 3 side chain; linkers in the order of their positions; H or OH if unused. Non-standard residues stand in square brackets, D forms with d. Residues, ends and D or L forms follow the SMILES beside them. ξ: configuration not given here. X45 = O=C([C@@H]1C2CC2CN1[*:1])[*:2]; ξAbu = CCC(N)C(=O)O Bounds are passed on as bounds.

In the test the target is T1, HCV NS3 protease (Hepatitis C virus genotype 1a, UniProt P27958).
T1 construct: more particularly HCV NS3 proteases
T1 sequence (P27958 1027-1208): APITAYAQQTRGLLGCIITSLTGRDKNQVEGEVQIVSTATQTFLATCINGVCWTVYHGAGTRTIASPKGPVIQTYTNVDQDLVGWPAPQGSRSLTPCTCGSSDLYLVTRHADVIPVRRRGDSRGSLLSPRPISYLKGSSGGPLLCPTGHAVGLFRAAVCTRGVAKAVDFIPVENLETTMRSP
The test can be described thus: Enzyme inhibition of HCV NS3 serine protease (cleavage of peptide substrate / EDVV AbuC-p-nitroanilide, with or without NS4A). The format is biochemical. The note with it: Enzyme inhibition data; Ki from rate vs [inhibitor] plots, Morrison tight binding competitive inhibition fit; 30 C, pH 7.8; read-out: Ki. In a few lines: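 Spectrophotometric assay at 30 °C following pNA release at 405 nm from EDVV AbuC-pNA substrate, with or without NS4A. Ki from rate versus [inhibitor] fitted to Morrison's tight-binding competitive inhibition equation; Kii/Kis from mixed-inhibition fits; values reported in μM.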

On to `CCC(C=O)NC(=O)C1CC(OCc2ccccc2)CN1C(=O)C(NC(=O)c1cc(C)oc1C)C(C)C` (stereo not shown) [Compound 189], for which the Ki (usually the equilibrium dissociation constant of an inhibitor or competing ligand from its target) is > 100 µM.
Turning to `CCC(C=O)NC(=O)C1CC(OCc2ccccc2)CN1C(=O)C(NC(=O)c1c(C)cc(C)cc1C)C(C)C` (stereo not shown) [Compound 191], the Ki was > 100 µM.
To `CCC(C=O)NC(=O)C1CC(OCc2ccccc2)CN1C(=O)C(NC(=O)c1cccc(C)c1O)C(C)C` (stereo not shown) [Compound 192] belongs > 100 µM; to `CCC(C=O)NC(=O)C1CC(OCc2ccccc2)CN1C(=O)C(NC(=O)c1c(C)cccc1C)C(C)C` (stereo not shown) [Compound 193], > 100 µM.
To `CCC(C=O)NC(=O)C1CC(OCc2ccccc2)CN1C(=O)C(NC(=O)c1ccccc1Br)C(C)C` (stereo not shown) [Compound 195] belongs 1 to 100 µM; to `CCOc1ccc2ccccc2c1C(=O)NC(C(=O)N1CC(OCc2ccccc2)CC1C(=O)NC(C=O)CC)C(C)C` (stereo not shown) [Compound 197], 1 to 100 µM.
Regarding `CCC(C=O)NC(=O)[C@@H]1C2CC2CN1C(=O)[C@@H](NC(=O)[C@@H](NC(=O)[C@H](CC(=O)O)NC(=O)[C@H](CCC(=O)O)NC(C)=O)C(C)C)C(C)C` (stereo partly shown) [Compound 198] (Ac-EDVV[X45][ξAbu]-aldehyde), the Ki was < 1 µM.
